According to US20260297083A1, “SUBSTITUTED ACETYLENE COMPOUND DERIVATIVES AND THEIR PHARMACEUTICAL USE” (AVELOS THERAPEUTICS INC., priority 2023, published 2026):

System: DLD-1 BRCA2(−/−) Cell
Assay: Cell viability assay (Resazurin) in DLD1-BRCA2 cells
Type: cell-based
Details: Homo sapiens, DLD-1, 336 h, 14 days, 1,500 cells/well, final DMSO 1%
How it was run: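 DLD1-BRCA2 KG cells seeded at 1,500/well (parental 600/well) in RPMI-1640 with 10% FBS, compound added after 4 h (1% DMSO), media replaced every 3-4 days over 14 days at 37° C. Viability read by resazurin (0.1 mg/ml, 4 h) fluorescence at Ex/Em 560/590 nm; IC50 fitted.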

| Structure (SMILES) | IC50 |
| --- | --- |
| Cc1ccc(F)c(N(CC#Cc2cnc(N)cn2)C(=O)[C@@H]2CCS(=O)(=O)N2c2cc(C(F)(F)F)cc(C)n2)c1 [Example 33, (S)-N-(3-(5-aminopyrazin-2-yl)prop-2-yn-1-yl)-N-(2-fluoro-5-methylphenyl)-2-(6-methyl-4-(trifluoromethyl)pyridin-2-yl)isothiazolidine-3-carboxamide 1,1-dioxide] | < 1000 nM |
| Cc1cc(C(F)(F)F)cc(N2[C@H](C(=O)N(CC#Cc3cnc(S(N)(=O)=O)cn3)c3ccc(F)c(C)c3)CCS2(=O)=O)n1 [Example 65, (S)-N-(4-fluoro-3-methylphenyl)-2-(6-methyl-4-(trifluoromethyl)pyridin-2-yl)-N-(3-(5-sulfamoylpyrazin-2-yl)prop-2-yn-1-yl)isothiazolidine-3-carboxamide 1,1-dioxide] | < 1000 nM |
| CC(=O)Nc1cnc(C#CCN(C(=O)[C@@H]2CCS(=O)(=O)N2c2cc(C(F)(F)F)cc(C)n2)c2ccc(F)c(C)c2)cn1 [Example 34, (S)-N-(3-(5-acetamidopyrazin-2-yl)prop-2-yn-1-yl)-N-(4-fluoro-3-methylphenyl)-2-(6-methyl-4-(trifluoromethyl)pyridin-2-yl)isothiazolidine-3-carboxamide 1,1-dioxide] | 1100 to 5000 nM |
| Cc1cc(C(F)(F)F)cc(N2[C@H](C(=O)N(CC#Cc3cnc(N4[C@H](C)CN(C(C)C)C[C@H]4C)cn3)c3ccc(F)c(C)c3)CCS2(=O)=O)n1 [Example 55, (S)-N-(4-fluoro-3-methylphenyl)-N-(3-(5-((2R,6R)-4-isopropyl-2,6-dimethylpiperazin-1-yl)pyrazin-2-yl)prop-2-yn-1-yl)-2-(6-methyl-4-(trifluoromethyl)pyridin-2-yl)isothiazolidine-3-carboxamide 1,1-dioxide] | < 1000 nM |
| Cc1cc(C(F)(F)F)cc(N2[C@H](C(=O)N(CC#Cc3ccc(NC(C)C)nn3)c3ccc(F)c(C)c3F)CCS2(=O)=O)n1 [Example 21, (S)-N-(2,4-difluoro-3-methylphenyl)-N-(3-(6-(isopropylamino)pyridazin-3-yl)prop-2-yn-1-yl)-2-(6-methyl-4-(trifluoromethyl)pyridin-2-carboxamide 1,1-dioxideyl)isothiazolidine-3-carboxamide 1,1-dioxide] | < 1000 nM |

More lines, now with the values ahead:

| IC50 | Structure (SMILES) |
| --- | --- |
| < 1000 nM | Cc1cc(C(F)(F)F)cc(N2[C@H](C(=O)N(CC#Cc3nccc(N4CCOCC4)n3)c3ccc(F)c(C)c3)CCS2(=O)=O)n1 [Example 80, (S)-N-(4-fluoro-3-methylphenyl)-2-(6-methyl-4-(trifluoromethyl)pyridin-2-yl)-N-(3-(4-morpholinopyrimidin-2-yl)prop-2-yn-1-yl)isothiazolidine-3-carboxamide 1,1-dioxide] |
| < 1000 nM | Cc1cc(C(F)(F)F)cc(N2[C@H](C(=O)N(CC#Cc3cccc(=O)[nH]3)c3ccc(F)c(C)c3)CCS2(=O)=O)n1 [Example 87, (S)-N-(4-fluoro-3-methylphenyl)-2-(6-methyl-4-(trifluoromethyl)pyridin-2-yl)-N-(3-(6-oxo-1,6-dihydropyridin-2-yl)prop-2-yn-1-yl)isothiazolidine-3-carboxamide 1,1-dioxide] |
| < 1000 nM | Cc1cc(C(F)(F)F)cc(N2[C@H](C(=O)N(CC#Cc3ccc(C#N)nc3)c3ccc(F)c(C)c3)CCS2(=O)=O)n1 [Example 115, (S)-N-(3-(6-cyanopyridin-3-yl)prop-2-yn-1-yl)-N-(4-fluoro-3-methylphenyl)-2-(6-methyl-4-(trifluoromethyl)pyridin-2-yl)isothiazolidine-3-carboxamide 1,1-dioxide] |
| < 1000 nM | Cc1cc(C(F)(F)F)cc(N2[C@H](C(=O)N(CC#Cc3cc(N4CCOCC4)ncn3)c3ccc(F)c(C)c3)CCS2(=O)=O)n1 [Example 75, (S)-N-(4-fluoro-3-methylphenyl)-2-(6-methyl-4-(trifluoromethyl)pyridin-2-yl)-N-(3-(6-morpholinopyrimidin-4-yl)prop-2-yn-1-yl)isothiazolidine-3-carboxamide 1,1-dioxide] |
